The target in this assay is T1, F508delCFTR (Homo sapiens, UniProt P13569, DEL508-508).
T1 construct: expressed in transfected cells; host or cells: CFBE41o- human lung derived epithelial cells (CFBE41o-F508delCFTR-HRP), doxycycline-inducible
Put plainly: Cell Surface Expression-Horse Radish Peroxidase (CSE-HRP) Assay.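 On EC50 (with co-corrector): co-corrector chromenyl benzoic acid corrector at 2 or 3 µM.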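 On Maximum % activity (without co-corrector): % of on-plate positive control chromenyl benzoic acid corrector at 2 or 3 µM.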 Format: cell-based. The conditions noted are these: for Maximum % activity (with co-corrector) / Emax: maximum at any tested concentration; for Emax: read-out: Maximum % activity (without co-corrector). An outline of the steps: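 Corrector compounds were given as 8-point 3-fold series from 20 or 30 μM, with or without a 2 μM co-corrector, for 18-24 h at 33 °C. Surface HRP was read by luminol luminescence as % of positive control; variable-Hill-slope sigmoidal fitting gave EC50 from triplicate plates.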

Where [1] appears, read: test compound with co-corrector.
The mark [2] stands for this setting: test compound with co-corrector, read-out: EC50 (with co-corrector).
Where [3] appears, read: test compound without co-corrector.
Setting [4] is: test compound without co-corrector, read-out: EC50 (without co-corrector).

Where two headings read alike, the source gives them in different places.

T1 sequence (P13569 with tags, fused parts or gaps DEL508-508): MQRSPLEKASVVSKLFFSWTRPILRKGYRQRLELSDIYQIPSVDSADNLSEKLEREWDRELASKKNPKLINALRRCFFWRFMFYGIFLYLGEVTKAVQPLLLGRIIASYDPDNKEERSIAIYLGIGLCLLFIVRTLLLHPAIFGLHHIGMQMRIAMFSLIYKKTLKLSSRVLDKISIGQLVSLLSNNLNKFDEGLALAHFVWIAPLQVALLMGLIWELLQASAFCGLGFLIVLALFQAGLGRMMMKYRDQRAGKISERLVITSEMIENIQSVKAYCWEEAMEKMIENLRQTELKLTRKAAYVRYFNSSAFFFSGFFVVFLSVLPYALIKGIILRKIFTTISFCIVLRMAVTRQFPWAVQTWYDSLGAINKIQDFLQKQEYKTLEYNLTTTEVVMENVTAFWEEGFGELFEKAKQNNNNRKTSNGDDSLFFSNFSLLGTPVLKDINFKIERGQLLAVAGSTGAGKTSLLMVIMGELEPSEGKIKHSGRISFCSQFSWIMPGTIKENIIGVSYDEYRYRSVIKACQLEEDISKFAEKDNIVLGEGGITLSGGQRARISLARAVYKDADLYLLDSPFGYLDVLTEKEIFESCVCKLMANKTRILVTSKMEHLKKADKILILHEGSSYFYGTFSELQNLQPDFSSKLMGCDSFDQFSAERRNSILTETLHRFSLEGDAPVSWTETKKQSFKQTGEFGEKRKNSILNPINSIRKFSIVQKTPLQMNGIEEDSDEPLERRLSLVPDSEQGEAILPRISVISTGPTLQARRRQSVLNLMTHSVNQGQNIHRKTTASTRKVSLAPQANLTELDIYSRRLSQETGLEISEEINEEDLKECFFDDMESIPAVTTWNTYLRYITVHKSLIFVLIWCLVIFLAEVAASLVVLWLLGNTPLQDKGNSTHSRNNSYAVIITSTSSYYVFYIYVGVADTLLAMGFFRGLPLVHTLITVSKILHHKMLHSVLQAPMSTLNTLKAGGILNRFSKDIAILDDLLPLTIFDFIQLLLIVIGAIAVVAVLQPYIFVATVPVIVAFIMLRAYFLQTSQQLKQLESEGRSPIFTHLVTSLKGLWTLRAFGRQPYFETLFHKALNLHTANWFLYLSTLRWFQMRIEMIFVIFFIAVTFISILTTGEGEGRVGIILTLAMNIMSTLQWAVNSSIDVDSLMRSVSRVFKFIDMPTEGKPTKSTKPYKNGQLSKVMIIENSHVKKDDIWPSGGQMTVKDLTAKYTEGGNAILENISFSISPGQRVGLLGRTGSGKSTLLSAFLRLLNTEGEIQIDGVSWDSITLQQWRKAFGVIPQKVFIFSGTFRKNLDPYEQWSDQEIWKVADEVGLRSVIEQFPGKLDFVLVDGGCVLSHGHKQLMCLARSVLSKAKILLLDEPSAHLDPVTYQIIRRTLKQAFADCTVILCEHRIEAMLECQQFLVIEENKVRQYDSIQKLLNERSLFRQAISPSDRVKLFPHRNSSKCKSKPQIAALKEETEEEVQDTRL

`COc1cnc(OCC2CC2)c(C2(C(=O)NS(=O)(=O)c3cccc4ncccc34)CC2)c1` [Example GI-87, 1-[2-(cyclopropylmethoxy)-5-methoxypyridin-3-yl]-N-(quinoline-5-sulfonyl)cyclopropane-1-carboxamide]: under setting [1], the “Maximum % activity (with co-corrector)” value is “+++ (≥350)”. Besides, the EC50 is below 3 µM under setting [2] and 3 to 10 µM under setting [4]. In addition, the Emax under setting [3] is above 150%.
For `COc1cnc(OCC2CC2)c(C2(C(=O)NS(=O)(=O)c3cccc4[nH]ccc34)CC2)c1` [Example GI-88, 1-[2-(cyclopropylmethoxy)-5-methoxypyridin-3-yl]-N-(1H-indole-4-sulfonyl)cyclopropane-1-carboxamide], the “Maximum % activity (with co-corrector)” value under setting [1] is recorded as “+++ (≥350)”. The EC50 under setting [2] was below 3 µM and the EC50 under setting [4] was below 3 µM. Moreover, the Emax under setting [3] was above 150%.
As to `CC(C)COc1ccc(OC(C)C)c(C2(C(=O)NS(=O)(=O)c3cccc4[nH]ccc34)CC2)n1` [Example GI-89, N-(1H-indole-4-sulfonyl)-1-{6-(2-methylpropoxy)-3-[(propan-2-yl)oxy]pyridin-2-yl}cyclopropane-1-carboxamide], the “Maximum % activity (with co-corrector)” value under setting [1] is “+++ (≥350)”. Moreover, the EC50 was below 3 µM under setting [2] and below 3 µM under setting [4]. In addition, under setting [3], the Emax was above 150%.
`Cc1ccc2c(S(=O)(=O)NC(=O)C3(c4nc(OCC(C)C)ccc4OC(C)C)CC3)cccc2n1` [Example GI-90, 1-{6-(2-methylpropoxy)-3-[(propan-2-yl)oxy]pyridin-2-yl}-N-(2-methylquinoline-5-sulfonyl)cyclopropane-1-carboxamide]: the “Maximum % activity (with co-corrector)” value under setting [1] is on record as “+++ (≥350)”. The 50% effective concentration (EC50) runs as follows: under setting [2], below 3 µM; under setting [4], below 3 µM. The Emax under setting [3] is above 150%.
`COc1cc(C2(C(=O)NS(=O)(=O)c3cccc4ncccc34)CC2)c(OCC2CC2)cn1` [Example GI-91, 1-[5-(cyclopropylmethoxy)-2-methoxypyridin-4-yl]-N-(quinoline-5-sulfonyl)cyclopropane-1-carboxamide]: under setting [1], the “Maximum % activity (with co-corrector)” value is “+++ (≥350)”. The EC50 is below 3 µM under setting [2] and 3 to 10 µM under setting [4]. Also, the Emax under setting [3] was above 150%.
Taken in the same sequence, the figures for `COc1cnc(OCC2CC2)c(C2(C(=O)NS(=O)(=O)c3cccc4nc(C)ccc34)CC2)c1` [Example GI-92, 1-[2-(cyclopropylmethoxy)-5-methoxypyridin-3-yl]-N-(2-methylquinoline-5-sulfonyl)cyclopropane-1-carboxamide] were “+++ (≥350)”, below 3 µM, below 3 µM and above 150%.
Taken in the same sequence, the figures for `COCCOc1ncc(C2CCC2)cc1C1(C(=O)NS(=O)(=O)c2cccc3nc(C)ccc23)CC1` [Example GI-94, 1-[5-cyclobutyl-2-(2-methoxyethoxy)pyridin-3-yl]-N-(2-methylquinoline-5-sulfonyl)cyclopropane-1-carboxamide] were “+++ (≥350)”, below 3 µM, below 3 µM and above 150%.
For `COc1cc(C2(C(=O)NS(=O)(=O)c3cccc4[nH]ccc34)CC2)c(OCC2CC2)cn1` [Example GI-95, 1-[5-(cyclopropylmethoxy)-2-methoxypyridin-4-yl]-N-(1H-indole-4-sulfonyl)cyclopropane-1-carboxamide], in that order: “+++ (≥350)”, below 3 µM, below 3 µM and above 150%.
For `Cc1cnc(OCC2CC2)c(C2(C(=O)NS(=O)(=O)c3cccc4ncccc34)CC2)c1` [Example GI-96, 1-[2-(cyclopropylmethoxy)-5-methylpyridin-3-yl]-N-(quinoline-5-sulfonyl)cyclopropane-1-carboxamide], the “Maximum % activity (with co-corrector)” value under setting [1] is recorded as “+++ (≥350)”. Besides, the EC50 under setting [2] was below 3 µM and the EC50 under setting [4] was 3 to 10 µM. The Emax under setting [3] is above 150%.
Regarding `Cc1cnc(OCC2CC2)c(C2(C(=O)NS(=O)(=O)c3cccc4[nH]ccc34)CC2)c1` [Example GI-97, 1-[2-(cyclopropylmethoxy)-5-methylpyridin-3-yl]-N-(1H-indole-4-sulfonyl)cyclopropane-1-carboxamide], the “Maximum % activity (with co-corrector)” value under setting [1] is on record as “+++ (≥350)”. Besides, the EC50 under setting [2] was below 3 µM and the EC50 under setting [4] is below 3 µM. Under setting [3], the Emax is above 150%.
Turning to `O=C(NS(=O)(=O)c1cccc2[nH]ccc12)C1(c2cc(C3CCC3)cnc2OCC2CC2)CC1` [Example GI-98, 1-[5-cyclobutyl-2-(cyclopropylmethoxy)pyridin-3-yl]-N-(1H-indole-4-sulfonyl)cyclopropane-1-carboxamide], the “Maximum % activity (with co-corrector)” value under setting [1] was “+++ (≥350)”. Further, the EC50 was below 3 µM under setting [2] and below 3 µM under setting [4]. In addition, under setting [3], the Emax is above 150%.
Turning to `COCCOc1ncc(C2CCC2)cc1C1(C(=O)NS(=O)(=O)c2cccc3[nH]ccc23)CC1` [Example GI-99, 1-[5-cyclobutyl-2-(2-methoxyethoxy)pyridin-3-yl]-N-(1H-indole-4-sulfonyl)cyclopropane-1-carboxamide], the “Maximum % activity (with co-corrector)” value under setting [1] is “+++ (≥350)”. In addition, the EC50 is below 3 µM under setting [2] and below 3 µM under setting [4]. In addition, the Emax under setting [3] was above 150%.
As for `O=C(NS(=O)(=O)c1cccc2ncccc12)C1(c2cc(C3CCC3)cnc2OCC2CC2)CC1` [Example GI-100, 1-[5-cyclobutyl-2-(cyclopropylmethoxy)pyridin-3-yl]-N-(quinoline-5-sulfonyl)cyclopropane-1-carboxamide], under setting [1], the “Maximum % activity (with co-corrector)” value was “+++ (≥350)”. Also, the EC50 under setting [2] was below 3 µM and the EC50 under setting [4] is below 3 µM. Besides, the Emax under setting [3] is above 150%.
`Cc1cnc(OCC2CC2)c(C2(C(=O)NS(=O)(=O)c3cccc4nc(C)ccc34)CC2)c1` [Example GI-101, 1-[2-(cyclopropylmethoxy)-5-methylpyridin-3-yl]-N-(2-methylquinoline-5-sulfonyl)cyclopropane-1-carboxamide]: the “Maximum % activity (with co-corrector)” value under setting [1] is listed as “+++ (≥350)”. The EC50 under setting [2] was below 3 µM and the EC50 under setting [4] fell in the range of 3 to 10 µM. Under setting [3], the Emax is above 150%.
For `CCc1cnc(N2CCC(OC(C)C)CC2)c(C2(C(=O)NS(=O)(=O)c3cccc4[nH]ccc34)CC2)c1` [Example GI-102, 1-(5-ethyl-2-{4-[(propan-2-yl)oxy]piperidin-1-yl}pyridin-3-yl)-N-(1H-indole-4-sulfonyl)cyclopropane-1-carboxamide], in that order: “+++ (≥350)”, below 3 µM, 3 to 10 µM and above 150%.
With `CC(C)OC1CCN(c2ncc(C3CCC3)cc2C2(C(=O)NS(=O)(=O)c3cccc4[nH]ccc34)CC2)CC1` [Example GI-104, 1-(5-cyclobutyl-2-{4-[(propan-2-yl)oxy]piperidin-1-yl}pyridin-3-yl)-N-(1H-indole-4-sulfonyl)cyclopropane-1-carboxamide], the “Maximum % activity (with co-corrector)” value under setting [1] was “+++ (≥350)”. For the same molecule, the EC50 is, setting by setting: under setting [2], below 3 µM; under setting [4], below 3 µM. The Emax under setting [3] is above 150%.
`CC(C)OC1CCN(c2ncc(C3CCC3)cc2C2(C(=O)NS(=O)(=O)c3cccc4ncccc34)CC2)CC1` [Example GI-105, 1-(5-cyclobutyl-2-{4-[(propan-2-yl)oxy]piperidin-1-yl}pyridin-3-yl)-N-(quinoline-5-sulfonyl)cyclopropane-1-carboxamide]: the “Maximum % activity (with co-corrector)” value under setting [1] is on record as “+++ (≥350)”. Moreover, the EC50 by setting is: under setting [2], below 3 µM; under setting [4], below 3 µM. Also, the Emax under setting [3] was above 150%.
Turning to `CCc1cnc(OCC2CC2)c(C2(C(=O)NS(=O)(=O)c3cccc4ncccc34)CC2)c1` [Example GI-106, 1-[2-(cyclopropylmethoxy)-5-ethylpyridin-3-yl]-N-(quinoline-5-sulfonyl)cyclopropane-1-carboxamide], under setting [1], the “Maximum % activity (with co-corrector)” value is recorded as “+++ (≥350)”. Further, the EC50 under setting [2] was below 3 µM and the EC50 under setting [4] is below 3 µM. Moreover, the Emax under setting [3] was above 150%.
On to `CCc1cnc(OCC2CC2)c(C2(C(=O)NS(=O)(=O)c3cccc4nc(C)ccc34)CC2)c1` [Example GI-107, 1-[2-(cyclopropylmethoxy)-5-ethylpyridin-3-yl]-N-(2-methylquinoline-5-sulfonyl)cyclopropane-1-carboxamide], for which the “Maximum % activity (with co-corrector)” value under setting [1] was “+++ (≥350)”. For the same molecule, the EC50 is below 3 µM under setting [2] and below 3 µM under setting [4]. The Emax under setting [3] is above 150%.
As for `CCc1cnc(OCC2CC2)c(C2(C(=O)NS(=O)(=O)c3cccc4[nH]ccc34)CC2)c1` [Example GI-108, 1-[2-(cyclopropylmethoxy)-5-ethylpyridin-3-yl]-N-(1H-indole-4-sulfonyl)cyclopropane-1-carboxamide], the “Maximum % activity (with co-corrector)” value under setting [1] was “+++ (≥350)”. In addition, the EC50 reads like this: under setting [2], below 3 µM; under setting [4], below 3 µM. Further, the Emax under setting [3] is above 150%.
Turning to `CCc1cnc(OCCOC)c(C2(C(=O)NS(=O)(=O)c3cccc4[nH]ccc34)CC2)c1` [Example GI-109, 1-[5-ethyl-2-(2-methoxyethoxy)pyridin-3-yl]-N-(1H-indole-4-sulfonyl)cyclopropane-1-carboxamide], under setting [1], the “Maximum % activity (with co-corrector)” value was “+++ (≥350)”. Besides, the EC50 is, setting by setting: under setting [2], below 3 µM; under setting [4], 3 to 10 µM. The Emax under setting [3] was above 150%.

As usually defined, the EC50 is the concentration at which the effect is half-maximal.

The values above are taken from patent US10829473B2, “Modulators of the cystic fibrosis transmembrane conductance regulator protein and methods of use” (AbbVie Overseas S.Á.R.L., priority 2017, dated 2020).
